In patent US12673946B2, “Pyrimidin-4(3H)-one derivatives as TRPV4 antagonists” (RaQualia Pharma Inc., priority 2020, dated 2026) one finds IC50 data, which are given here for 49 molecules.

The target in this assay is T1, human TRPV4 (Homo sapiens, UniProt Q9HBA0).
T1 construct: host or cells: tetracycline-inducible Flp-In T-REx 293 cells
The assay is described as follows: Hypotonicity-induced Ca2+ influx (Fluo-4, FDSS). In kind it is cell-based. The method in brief:
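Flp-In T-REx 293 cells with tetracycline-induced human TRPV4, loaded with Fluo-4 for 60 min at 25 °C. Compound added 5 min before hypotonic mannitol/CaCl2 solution. Ca2+ signal recorded for 4.5 min on FDSS.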

Setting [1] is: Flp-In T-REx 293 cells expressing human TRPV4, examples listed under heading 'Human IC50<50 nM'.
Where [2] appears, read: Flp-In T-REx 293 cells stably expressing human TRPV4, compounds listed by potency bin (<10 nM Tables 96-1/96-2, <3 nM Table 97).

T1 sequence (Q9HBA0 whole entry): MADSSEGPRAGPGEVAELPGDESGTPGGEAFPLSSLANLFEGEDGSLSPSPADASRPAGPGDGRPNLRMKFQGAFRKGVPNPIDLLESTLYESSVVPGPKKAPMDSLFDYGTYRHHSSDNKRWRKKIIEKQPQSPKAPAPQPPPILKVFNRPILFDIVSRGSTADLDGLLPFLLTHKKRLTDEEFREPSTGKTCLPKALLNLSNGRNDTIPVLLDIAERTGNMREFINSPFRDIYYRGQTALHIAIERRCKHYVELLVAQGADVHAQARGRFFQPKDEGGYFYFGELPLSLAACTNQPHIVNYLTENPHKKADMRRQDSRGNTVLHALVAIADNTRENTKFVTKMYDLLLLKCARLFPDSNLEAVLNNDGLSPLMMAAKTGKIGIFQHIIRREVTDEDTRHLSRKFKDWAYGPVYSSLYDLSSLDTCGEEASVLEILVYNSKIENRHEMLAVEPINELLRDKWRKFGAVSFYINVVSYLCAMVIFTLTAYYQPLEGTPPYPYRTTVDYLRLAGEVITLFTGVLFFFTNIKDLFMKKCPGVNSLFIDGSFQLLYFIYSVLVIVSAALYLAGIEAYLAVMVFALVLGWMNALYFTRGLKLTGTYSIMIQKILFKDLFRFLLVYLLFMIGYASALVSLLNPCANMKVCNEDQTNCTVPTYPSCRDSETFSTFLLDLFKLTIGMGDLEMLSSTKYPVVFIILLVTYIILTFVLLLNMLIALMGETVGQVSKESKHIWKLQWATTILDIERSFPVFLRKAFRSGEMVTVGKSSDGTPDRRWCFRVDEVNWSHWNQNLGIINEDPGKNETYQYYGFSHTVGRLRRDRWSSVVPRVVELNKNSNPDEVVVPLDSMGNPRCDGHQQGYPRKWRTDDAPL

`O=C([C@H](O)c1cccc(-c2cc(F)cc(Cl)c2)c1)N1CCc2nc(C3(c4ccccc4)CC3)[nH]c(=O)c2C1` [44-77]: the IC50 runs as follows: under setting [1], under 50 nM; under setting [2], under 10 nM.

Consider `O=C([C@H](O)c1cccc(-c2cccc(C(F)(F)F)n2)c1)N1CCc2nc(C3(c4ccccc4)CC3)[nH]c(=O)c2C1` [44-78], for which the IC50 by setting is: under setting [1], under 50 nM; under setting [2], under 3 nM.

For `O=C([C@H](O)c1cccc(-c2ccnc(C(F)(F)F)c2)c1)N1CCc2nc(C3(c4ccccc4)CC3)[nH]c(=O)c2C1` [44-79], the IC50 reads like this: under setting [1], under 50 nM; under setting [2], under 3 nM.

Turning to `O=C([C@H](O)c1cccc(-c2cnc3ccccc3c2)c1)N1CCc2nc(C3(c4ccccc4)CC3)[nH]c(=O)c2C1` [44-81], the IC50 under setting [1] is under 50 nM and the IC50 under setting [2] is under 3 nM.

Turning to `O=C([C@H](O)c1cccc(-c2ccc(F)c(Cl)c2)c1)N1CCc2nc(C3(c4ccccc4)CC3)[nH]c(=O)c2C1` [44-82], the IC50 by setting is: under setting [1], under 50 nM; under setting [2], under 3 nM.

As for `O=C([C@H](O)c1cccc(-c2ccc(OCc3ccccc3)nc2)c1)N1CCc2nc(C3(c4ccccc4)CC3)[nH]c(=O)c2C1` [44-83], the IC50 is, setting by setting: under setting [1], under 50 nM; under setting [2], under 10 nM.

Consider `O=C([C@H](O)c1cccc(-c2cc3ccccc3o2)c1)N1CCc2nc(C3(c4ccccc4)CC3)[nH]c(=O)c2C1` [44-84], for which the IC50 is under 50 nM under setting [1] and under 3 nM under setting [2].

For the molecule `O=C([C@H](O)c1cccc(-c2ccc3c(c2)OC(F)(F)O3)c1)N1CCc2nc(C3(c4ccccc4)CC3)[nH]c(=O)c2C1` [44-85], the IC50 was under 50 nM under setting [1] and under 3 nM under setting [2].

Turning to `O=C([C@H](O)c1cccc(-c2ccc(Cl)cc2)c1)N1CCc2nc(C3(c4ccccc4)CC3)[nH]c(=O)c2C1` [44-86], the IC50 by setting is: under setting [1], under 50 nM; under setting [2], under 10 nM.

Under setting [1], `O=C([C@H](O)c1cccc(-c2ccc(OCc3ccccn3)cc2)c1)N1CCc2nc(C3(c4ccccc4)CC3)[nH]c(=O)c2C1` [44-87] showed an IC50 of under 50 nM.

The molecule `O=C([C@H](O)c1cccc(-c2ccc3ncccc3c2)c1)N1CCc2nc(C3(c4ccccc4)CC3)[nH]c(=O)c2C1` [44-88] returned an IC50 under setting [1] of under 50 nM.

Under setting [1], `O=C([C@H](O)c1cccc(-c2ccc3cnccc3c2)c1)N1CCc2nc(C3(c4ccccc4)CC3)[nH]c(=O)c2C1` [44-89] came in with a concentration for half-maximal inhibition (IC50) of under 50 nM.

Under setting [1], `O=C([C@H](O)c1cccc(-c2ccc3cccnc3c2)c1)N1CCc2nc(C3(c4ccccc4)CC3)[nH]c(=O)c2C1` [44-90] showed an IC50 of under 50 nM.

The molecule `O=C([C@H](O)c1cccc(-c2cncc(C(F)(F)F)c2)c1)N1CCc2nc(C3(c4ccccc4)CC3)[nH]c(=O)c2C1` [44-92] registered an IC50 under setting [1] of under 50 nM.

For `O=C([C@H](O)c1cccc(-c2cccc(OCc3ccccc3)c2)c1)N1CCc2nc(C3(c4ccccc4)CC3)[nH]c(=O)c2C1` [44-93], the IC50 under setting [1] is under 50 nM and the IC50 under setting [2] is under 10 nM.

Consider `Cc1ccc(-c2cccc([C@@H](O)C(=O)N3CCc4nc(C5(c6ccccc6)CC5)[nH]c(=O)c4C3)c2)cc1Cl` [44-94], for which the IC50 is under 50 nM under setting [1] and under 10 nM under setting [2].

On to `O=C([C@H](O)c1cccc(-c2cc3ccccc3s2)c1)N1CCc2nc(C3(c4ccccc4)CC3)[nH]c(=O)c2C1` [44-95], for which the IC50 under setting [1] is under 50 nM and the IC50 under setting [2] was under 3 nM.

For the molecule `Cc1cc(Cl)cc(-c2cccc([C@@H](O)C(=O)N3CCc4nc(C5(c6ccccc6)CC5)[nH]c(=O)c4C3)c2)c1` [44-96], the IC50 is, setting by setting: under setting [1], under 50 nM; under setting [2], under 10 nM.

`O=C([C@H](O)c1cccc(-c2ccc(Cl)c(OC(F)(F)F)c2)c1)N1CCc2nc(C3(c4ccccc4)CC3)[nH]c(=O)c2C1` [44-97]: the IC50 is under 50 nM under setting [1] and under 10 nM under setting [2].

Regarding `O=C([C@H](O)c1cccc(-c2cc(Cl)cc(OC(F)(F)F)c2)c1)N1CCc2nc(C3(c4ccccc4)CC3)[nH]c(=O)c2C1` [44-98], the IC50 under setting [1] was under 50 nM and the IC50 under setting [2] was under 3 nM.

Regarding `O=C([C@H](O)c1cccc(-c2cc(Cl)cc(C(F)(F)F)c2)c1)N1CCc2nc(C3(c4ccccc4)CC3)[nH]c(=O)c2C1` [44-99], the half-maximal inhibitory concentration (IC50) reads like this: under setting [1], under 50 nM; under setting [2], under 10 nM.

In the case of `O=C([C@H](O)c1cccc(-c2cc(Cl)cc(Cl)c2)c1)N1CCc2nc(C3(c4ccccc4)CC3)[nH]c(=O)c2C1` [44-100], the IC50 is under 50 nM under setting [1] and under 10 nM under setting [2].

`O=C([C@H](O)c1cccc(-c2ccc(Cl)c(Cl)c2)c1)N1CCc2nc(C3(c4ccccc4)CC3)[nH]c(=O)c2C1` [44-101] showed an IC50 under setting [1] of under 50 nM and an IC50 under setting [2] of under 10 nM.

`O=C([C@H](O)c1cccc(-c2ccc(Cl)c(C(F)(F)F)c2)c1)N1CCc2nc(C3(c4ccccc4)CC3)[nH]c(=O)c2C1` [44-102]: the IC50 under setting [1] is under 50 nM and the IC50 under setting [2] was under 3 nM.

Regarding `CC(C)(C)c1cc(-c2cccc([C@@H](O)C(=O)N3CCc4nc(C5(c6ccccc6)CC5)[nH]c(=O)c4C3)c2)cc(C(C)(C)C)c1` [44-103], the IC50 under setting [1] was under 50 nM and the IC50 under setting [2] is under 10 nM.

`CC(C)Oc1cccc(-c2cccc([C@@H](O)C(=O)N3CCc4nc(C5(c6ccccc6)CC5)[nH]c(=O)c4C3)c2)c1` [44-104]: the IC50 is under 50 nM under setting [1] and under 3 nM under setting [2].

`O=C([C@H](O)c1cccc(-c2cccc(C3CC3)c2)c1)N1CCc2nc(C3(c4ccccc4)CC3)[nH]c(=O)c2C1` [44-105]: the IC50 runs as follows: under setting [1], under 50 nM; under setting [2], under 10 nM.

As for `O=C([C@H](O)c1cccc(-c2ccc3c(c2)OCCCO3)c1)N1CCc2nc(C3(c4ccccc4)CC3)[nH]c(=O)c2C1` [44-106], the IC50 under setting [1] is under 50 nM.

As to `O=C([C@H](O)c1cccc(-c2ccc(OCc3ccccc3)cc2)c1)N1CCc2nc(C3(c4ccccc4)CC3)[nH]c(=O)c2C1` [44-107], the IC50 reads like this: under setting [1], under 50 nM; under setting [2], under 10 nM.

As to `O=C([C@H](O)c1cccc(-c2cc(Cl)ccc2Cl)c1)N1CCc2nc(C3(c4ccccc4)CC3)[nH]c(=O)c2C1` [44-108], the IC50 is under 50 nM under setting [1] and under 10 nM under setting [2].

Under setting [1], `O=C([C@H](O)c1cccc(-c2cccc(Cl)c2Cl)c1)N1CCc2nc(C3(c4ccccc4)CC3)[nH]c(=O)c2C1` [44-109] displayed a 50% inhibitory concentration (IC50) of under 50 nM.

Turning to `N#Cc1cc(Cl)cc(-c2cccc([C@@H](O)C(=O)N3CCc4nc(C5(c6ccccc6)CC5)[nH]c(=O)c4C3)c2)c1` [44-110], the IC50 reads like this: under setting [1], under 50 nM; under setting [2], under 3 nM.

Consider `O=C([C@H](O)c1cccc(-c2ccccc2OCc2ccccc2)c1)N1CCc2nc(C3(c4ccccc4)CC3)[nH]c(=O)c2C1` [44-111], for which the IC50 under setting [1] is under 50 nM.

As to `O=C([C@H](O)c1cccc(-c2coc3ccccc23)c1)N1CCc2nc(C3(c4ccccc4)CC3)[nH]c(=O)c2C1` [44-112], the IC50 is, setting by setting: under setting [1], under 50 nM; under setting [2], under 10 nM.

`Cc1cc(C)cc(-c2cccc([C@@H](O)C(=O)N3CCc4nc(C5(c6ccccc6)CC5)[nH]c(=O)c4C3)c2)c1` [44-113]: the IC50 under setting [1] was under 50 nM.

Molecule `Cc1ccc(-c2cccc([C@@H](O)C(=O)N3CCc4nc(C5(c6ccccc6)CC5)[nH]c(=O)c4C3)c2)cc1C` [44-114] gave an IC50 under setting [1] of under 50 nM.

Consider `CC(C)c1cccc(-c2cccc([C@@H](O)C(=O)N3CCc4nc(C5(c6ccccc6)CC5)[nH]c(=O)c4C3)c2)c1` [44-115], for which the IC50 by setting is: under setting [1], under 50 nM; under setting [2], under 10 nM.

In turn, `O=C([C@H](O)c1cccc(-c2ccc3c(c2)CCO3)c1)N1CCc2nc(C3(c4ccccc4)CC3)[nH]c(=O)c2C1` [44-116] yielded an IC50 under setting [1] of under 50 nM.

Regarding `Cc1cc(-c2cccc([C@@H](O)C(=O)N3CCc4nc(C5(c6ccccc6)CC5)[nH]c(=O)c4C3)c2)ccc1Cl` [44-117], the IC50 was under 50 nM under setting [1] and under 10 nM under setting [2].

For the molecule `O=C(C(O)c1cccc(-c2ccc(-c3ccc(Cl)cc3)cc2)c1)N1CCc2nc(C3(c4ccccc4)CC3)[nH]c(=O)c2C1` (stereo not drawn) [44-118], the IC50 is, setting by setting: under setting [1], under 50 nM; under setting [2], under 10 nM.

Consider `O=C(C(O)c1cccc(-c2cccc(OCc3ccccc3)c2)c1)N1CCc2nc(C3(c4ccccc4)CC3)[nH]c(=O)c2C1` (stereo not drawn) [44-119], for which the IC50 under setting [1] is under 50 nM and the IC50 under setting [2] is under 10 nM.

For `O=C([C@H](O)c1cccc(-c2ccc(F)c(Cl)c2)c1)N1CCc2nc(C3(c4cccc(Cl)c4)CC3)[nH]c(=O)c2C1` [45-1], the IC50 was under 50 nM under setting [1] and under 3 nM under setting [2].

Turning to `CC(C)(C)c1cccc(-c2cccc([C@@H](O)C(=O)N3CCc4nc(C5(c6cccc(Cl)c6)CC5)[nH]c(=O)c4C3)c2)c1` [45-2], the IC50 is, setting by setting: under setting [1], under 50 nM; under setting [2], under 10 nM.

For the molecule `O=C([C@H](O)c1cccc(-c2ccc(Cl)c(C(F)(F)F)c2)c1)N1CCc2nc(C3(c4cccc(Cl)c4)CC3)[nH]c(=O)c2C1` [45-3], the IC50 by setting is: under setting [1], under 50 nM; under setting [2], under 10 nM.

`O=C([C@H](O)c1cccc(-c2cccc(C(F)(F)F)c2)c1)N1CCc2nc(C3(c4cccc(Cl)c4)CC3)[nH]c(=O)c2C1` [45-4]: the IC50 by setting is: under setting [1], under 50 nM; under setting [2], under 10 nM.

`N#Cc1cc(Cl)cc(-c2cccc([C@@H](O)C(=O)N3CCc4nc(C5(c6cccc(Cl)c6)CC5)[nH]c(=O)c4C3)c2)c1` [45-5]: the IC50 was under 50 nM under setting [1] and under 3 nM under setting [2].

For `O=C([C@H](O)c1cccc(-c2cccc(C(F)(F)F)n2)c1)N1CCc2nc(C3(c4cccc(Cl)c4)CC3)[nH]c(=O)c2C1` [45-6], the IC50 is, setting by setting: under setting [1], under 50 nM; under setting [2], under 3 nM.

The molecule `O=C([C@H](O)c1cccc(-c2cccc(OC(F)(F)F)c2)c1)N1CCc2nc(C3(c4cccc(Cl)c4)CC3)[nH]c(=O)c2C1` [45-7] returned a half-maximal inhibitory concentration (IC50) under setting [1] of under 50 nM and an IC50 under setting [2] of under 10 nM.

Regarding `O=C([C@H](O)c1cccc(-c2cccc(Cl)c2)c1)N1CCc2nc(C3(c4cccc(Cl)c4)CC3)[nH]c(=O)c2C1` [45-8], the IC50 reads like this: under setting [1], under 50 nM; under setting [2], under 10 nM.

As a reminder, the IC50 is the point on the concentration scale where inhibition reaches its midpoint. A high value points to weaker potency in that assay.
